According to patent US10537563B2, “Methods for treating ocular disease using inhibitors of CSF-1R” (NOVARTIS AG, priority 2016, dated 2020):

Legend:
Abl = Abl (Homo sapiens, UniProt P00519); experiment: In vitro kinase assay (Table 1); type: biochemical
Alk = Alk (Homo sapiens, UniProt Q9UM73); experiment: In vitro kinase assay (Table 1); type: biochemical
Blk = Blk (Homo sapiens, UniProt P51451); experiment: In vitro kinase assay (Table 1); type: biochemical
CamKII alpha = CamKII alpha (Homo sapiens, UniProt Q9UQM7); experiment: In vitro kinase assay (Table 1); type: biochemical
Chain of CamKII alpha (Q9UQM7 whole entry): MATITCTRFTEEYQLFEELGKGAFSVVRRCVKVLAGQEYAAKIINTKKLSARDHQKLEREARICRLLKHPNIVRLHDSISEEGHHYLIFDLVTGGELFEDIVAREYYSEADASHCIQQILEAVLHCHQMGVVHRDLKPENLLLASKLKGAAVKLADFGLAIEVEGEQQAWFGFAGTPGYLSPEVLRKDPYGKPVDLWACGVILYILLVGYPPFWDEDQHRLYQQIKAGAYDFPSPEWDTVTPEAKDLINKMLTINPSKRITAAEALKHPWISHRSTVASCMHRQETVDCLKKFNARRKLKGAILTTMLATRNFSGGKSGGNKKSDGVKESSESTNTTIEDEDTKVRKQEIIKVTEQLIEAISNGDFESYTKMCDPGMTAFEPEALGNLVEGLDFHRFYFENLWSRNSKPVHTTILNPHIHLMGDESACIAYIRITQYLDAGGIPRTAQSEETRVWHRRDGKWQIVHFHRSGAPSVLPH

Cdk7 cyclinH MAT1 = Cdk7 cyclinH MAT1 (Homo sapiens, UniProt P50613); experiment: In vitro kinase assay (Table 1); type: biochemical
Ck1gamma2 = Ck1gamma2 (Homo sapiens, UniProt P78368); experiment: In vitro kinase assay (Table 1); type: biochemical
cRaf = cRaf (Homo sapiens, UniProt P04049); experiment: In vitro kinase assay (Table 1); type: biochemical
Hck = Hck (Homo sapiens, UniProt P08631); experiment: In vitro kinase assay (Table 1); type: biochemical
Jak2 = Jak2 (Homo sapiens, UniProt O60674); experiment: In vitro kinase assay (Table 1); type: biochemical
KDR = KDR (Homo sapiens, UniProt P35968); experiment: In vitro kinase assay (Table 1); type: biochemical; conditions: KDR=VEGF receptor
Chain of KDR (P35968 20-1356, species assumed): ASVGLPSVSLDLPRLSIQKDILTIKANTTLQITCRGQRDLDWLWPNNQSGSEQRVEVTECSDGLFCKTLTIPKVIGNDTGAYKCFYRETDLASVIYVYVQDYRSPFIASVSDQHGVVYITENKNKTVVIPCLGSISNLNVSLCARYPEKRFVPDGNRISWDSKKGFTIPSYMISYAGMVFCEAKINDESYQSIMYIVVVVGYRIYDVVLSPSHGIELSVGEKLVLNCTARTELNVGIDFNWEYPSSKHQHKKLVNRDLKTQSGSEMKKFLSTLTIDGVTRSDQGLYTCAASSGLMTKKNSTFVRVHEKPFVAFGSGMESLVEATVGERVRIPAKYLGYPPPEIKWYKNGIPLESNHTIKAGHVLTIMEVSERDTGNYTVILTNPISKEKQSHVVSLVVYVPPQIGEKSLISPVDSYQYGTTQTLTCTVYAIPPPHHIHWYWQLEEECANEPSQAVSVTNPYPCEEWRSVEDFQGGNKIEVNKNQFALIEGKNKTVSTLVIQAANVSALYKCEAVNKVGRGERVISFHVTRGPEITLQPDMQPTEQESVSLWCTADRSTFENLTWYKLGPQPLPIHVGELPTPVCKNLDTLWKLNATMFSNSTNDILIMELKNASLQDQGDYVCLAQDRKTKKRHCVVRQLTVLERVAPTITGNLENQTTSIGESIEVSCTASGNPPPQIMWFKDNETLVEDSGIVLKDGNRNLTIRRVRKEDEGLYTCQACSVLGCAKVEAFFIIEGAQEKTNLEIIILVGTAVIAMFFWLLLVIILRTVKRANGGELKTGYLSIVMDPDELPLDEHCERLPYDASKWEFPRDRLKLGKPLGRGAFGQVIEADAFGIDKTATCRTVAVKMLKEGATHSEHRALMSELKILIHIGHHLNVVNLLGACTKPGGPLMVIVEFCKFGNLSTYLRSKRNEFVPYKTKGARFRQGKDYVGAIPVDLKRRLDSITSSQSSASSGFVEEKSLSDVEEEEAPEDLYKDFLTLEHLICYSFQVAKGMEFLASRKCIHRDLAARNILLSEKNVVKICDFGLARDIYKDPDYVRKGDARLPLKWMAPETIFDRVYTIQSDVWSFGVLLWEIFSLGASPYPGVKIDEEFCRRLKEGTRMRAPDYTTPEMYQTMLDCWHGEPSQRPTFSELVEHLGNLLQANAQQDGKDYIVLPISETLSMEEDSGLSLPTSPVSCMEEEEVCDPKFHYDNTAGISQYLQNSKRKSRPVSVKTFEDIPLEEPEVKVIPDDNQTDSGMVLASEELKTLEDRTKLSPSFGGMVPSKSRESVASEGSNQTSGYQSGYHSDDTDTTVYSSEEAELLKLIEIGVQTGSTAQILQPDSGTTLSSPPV

Lck = Lck (Homo sapiens, UniProt P06239); experiment: In vitro kinase assay (Table 1); type: biochemical
Chain of Lck (P06239 whole entry, species assumed): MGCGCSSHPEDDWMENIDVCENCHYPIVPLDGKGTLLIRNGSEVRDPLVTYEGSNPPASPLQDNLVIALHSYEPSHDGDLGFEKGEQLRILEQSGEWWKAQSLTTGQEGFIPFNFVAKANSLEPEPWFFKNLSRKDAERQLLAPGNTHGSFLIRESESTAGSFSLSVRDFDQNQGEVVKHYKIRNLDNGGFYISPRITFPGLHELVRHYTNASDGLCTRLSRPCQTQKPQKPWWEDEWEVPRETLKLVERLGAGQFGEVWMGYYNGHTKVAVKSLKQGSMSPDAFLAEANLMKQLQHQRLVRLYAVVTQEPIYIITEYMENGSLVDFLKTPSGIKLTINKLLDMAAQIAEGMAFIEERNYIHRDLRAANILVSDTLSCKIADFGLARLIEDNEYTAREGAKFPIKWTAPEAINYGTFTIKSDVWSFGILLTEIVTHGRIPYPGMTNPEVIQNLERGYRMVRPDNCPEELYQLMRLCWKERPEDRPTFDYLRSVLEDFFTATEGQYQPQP

PAK2 = PAK2 (Homo sapiens, UniProt Q13177); experiment: In vitro kinase assay (Table 1); type: biochemical
Chain of PAK2 (Q13177 whole entry, species assumed): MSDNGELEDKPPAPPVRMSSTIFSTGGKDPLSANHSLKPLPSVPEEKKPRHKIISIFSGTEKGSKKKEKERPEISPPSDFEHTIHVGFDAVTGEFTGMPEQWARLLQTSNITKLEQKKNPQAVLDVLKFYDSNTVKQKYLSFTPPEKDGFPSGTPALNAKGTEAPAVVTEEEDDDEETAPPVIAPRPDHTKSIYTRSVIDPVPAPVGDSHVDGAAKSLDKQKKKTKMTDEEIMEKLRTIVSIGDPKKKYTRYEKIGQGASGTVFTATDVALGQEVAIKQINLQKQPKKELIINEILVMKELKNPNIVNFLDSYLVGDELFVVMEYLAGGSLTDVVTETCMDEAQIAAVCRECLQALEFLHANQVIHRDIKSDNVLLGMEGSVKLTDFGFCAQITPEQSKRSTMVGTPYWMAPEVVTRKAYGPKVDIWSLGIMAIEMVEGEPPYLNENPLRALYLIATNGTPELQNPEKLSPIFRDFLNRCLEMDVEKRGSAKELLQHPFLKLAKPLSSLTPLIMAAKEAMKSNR

PAK4 = PAK4 (Homo sapiens, UniProt O96013); experiment: In vitro kinase assay (Table 1); type: biochemical
PIK3Cbeta = PIK3Cbeta (Homo sapiens, UniProt P42338); experiment: In vitro kinase assay (Table 1); type: biochemical
Pim1 = Pim1 (Homo sapiens, UniProt P11309); experiment: In vitro kinase assay (Table 1); type: biochemical
Chain of Pim1 (P11309 whole entry, species assumed): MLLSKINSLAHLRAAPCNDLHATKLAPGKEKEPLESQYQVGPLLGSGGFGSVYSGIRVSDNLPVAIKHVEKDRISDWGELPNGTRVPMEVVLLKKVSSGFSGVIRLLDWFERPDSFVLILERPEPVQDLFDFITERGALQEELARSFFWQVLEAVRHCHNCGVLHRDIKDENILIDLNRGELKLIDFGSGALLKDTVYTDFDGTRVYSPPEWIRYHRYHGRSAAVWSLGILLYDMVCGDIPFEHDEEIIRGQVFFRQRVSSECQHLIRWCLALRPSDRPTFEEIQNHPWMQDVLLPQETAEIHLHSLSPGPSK

PKC_alpha = PKC_alpha (Homo sapiens, UniProt P17252); experiment: In vitro kinase assay (Table 1); type: biochemical
Plk1 = Plk1 (Homo sapiens, UniProt P53350); experiment: In vitro kinase assay (Table 1); type: biochemical
p38alpha = p38alpha (Homo sapiens, UniProt Q16539); experiment: In vitro kinase assay (Table 1); type: biochemical
Chain of p38alpha (Q16539 whole entry): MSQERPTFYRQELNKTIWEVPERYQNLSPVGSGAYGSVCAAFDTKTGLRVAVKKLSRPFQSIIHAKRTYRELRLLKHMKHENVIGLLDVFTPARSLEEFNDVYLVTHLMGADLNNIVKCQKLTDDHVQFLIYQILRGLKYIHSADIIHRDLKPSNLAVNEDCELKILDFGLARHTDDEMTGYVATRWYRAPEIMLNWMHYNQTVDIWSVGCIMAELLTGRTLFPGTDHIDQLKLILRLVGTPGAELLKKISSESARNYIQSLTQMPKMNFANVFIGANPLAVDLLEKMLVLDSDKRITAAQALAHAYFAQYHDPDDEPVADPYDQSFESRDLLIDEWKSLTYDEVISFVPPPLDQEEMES

RAF1_4_CR = RAF1_4_CR (Homo sapiens, UniProt P04049); experiment: In vitro kinase assay (Table 1); type: biochemical
Ron = Ron (Homo sapiens, UniProt Q04912); experiment: In vitro kinase assay (Table 1); type: biochemical
smMLCK = smMLCK (Homo sapiens, UniProt Q15746); experiment: In vitro kinase assay (Table 1); type: biochemical
TRKB = TRKB (Homo sapiens, UniProt Q16620); experiment: In vitro kinase assay (Table 1); type: biochemical
CSF_1_RK (h) = molecular target: T1, CSF_1_RK (h) (Homo sapiens, UniProt P07333); experiment: Kinase profiling at Invitrogen; type: biochemical
T1 construct: purchased Invitrogen
T1 sequence (P07333 20-972): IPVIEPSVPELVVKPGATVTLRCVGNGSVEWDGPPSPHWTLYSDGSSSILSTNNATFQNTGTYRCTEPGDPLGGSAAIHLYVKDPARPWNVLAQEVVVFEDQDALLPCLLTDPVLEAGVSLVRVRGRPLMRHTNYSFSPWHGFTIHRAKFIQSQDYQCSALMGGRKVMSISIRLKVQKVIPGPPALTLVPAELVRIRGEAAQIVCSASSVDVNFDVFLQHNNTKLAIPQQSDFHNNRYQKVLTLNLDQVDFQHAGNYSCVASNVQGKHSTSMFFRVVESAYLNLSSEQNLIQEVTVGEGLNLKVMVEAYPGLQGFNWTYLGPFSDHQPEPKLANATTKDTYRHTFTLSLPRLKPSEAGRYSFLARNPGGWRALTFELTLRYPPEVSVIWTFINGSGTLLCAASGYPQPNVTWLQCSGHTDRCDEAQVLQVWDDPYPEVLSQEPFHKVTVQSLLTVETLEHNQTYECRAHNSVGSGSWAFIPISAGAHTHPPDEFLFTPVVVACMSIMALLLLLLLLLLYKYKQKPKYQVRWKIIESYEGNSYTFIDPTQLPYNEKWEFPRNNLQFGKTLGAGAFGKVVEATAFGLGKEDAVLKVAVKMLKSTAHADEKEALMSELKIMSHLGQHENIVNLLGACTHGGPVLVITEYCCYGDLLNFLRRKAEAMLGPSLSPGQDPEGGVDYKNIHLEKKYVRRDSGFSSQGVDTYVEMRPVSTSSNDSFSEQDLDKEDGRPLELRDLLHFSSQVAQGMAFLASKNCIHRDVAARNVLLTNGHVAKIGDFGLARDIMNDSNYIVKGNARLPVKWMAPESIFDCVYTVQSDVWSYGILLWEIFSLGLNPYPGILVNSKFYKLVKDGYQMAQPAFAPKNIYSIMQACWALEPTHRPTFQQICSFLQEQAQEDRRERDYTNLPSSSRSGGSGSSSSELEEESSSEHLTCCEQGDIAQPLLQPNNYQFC

Syk (h) = molecular target: T2, Syk (h) (Homo sapiens, UniProt P43405); experiment: Kinase profiling at Invitrogen; type: biochemical
T2 construct: purchased Invitrogen

BaF-Tpr-MET = molecular target: T3, BaF-Tpr-MET (Homo sapiens, UniProt P08581); experiment: BaF3 proliferation assay; type: cell-based, murine
T3 construct: expressed in transfected cells; host or cells: BaF3 (murine pro-B cell line); the other entry of the earlier key: TPR (P12270, Nucleoprotein TPR)

BAF/Tel-FGFR3-Q2/sACP = molecular target: T4, BAF/Tel-FGFR3-Q2/sACP (Homo sapiens, UniProt P22607); experiment: BaF3 proliferation assay; type: cell-based, murine
T4 construct: fused on or other part: P41212 (Transcription factor ETV6)

BAF/Tel-FGFR2-Q1/sACP = molecular target: T5, BAF/Tel-FGFR2-Q1/sACP (Homo sapiens, UniProt P21802); experiment: BaF3 proliferation assay; type: cell-based, murine
T5 construct: fused on or other part: P41212 (Transcription factor ETV6)
T5 sequence (P21802 481-770 limits assumed, change not shown): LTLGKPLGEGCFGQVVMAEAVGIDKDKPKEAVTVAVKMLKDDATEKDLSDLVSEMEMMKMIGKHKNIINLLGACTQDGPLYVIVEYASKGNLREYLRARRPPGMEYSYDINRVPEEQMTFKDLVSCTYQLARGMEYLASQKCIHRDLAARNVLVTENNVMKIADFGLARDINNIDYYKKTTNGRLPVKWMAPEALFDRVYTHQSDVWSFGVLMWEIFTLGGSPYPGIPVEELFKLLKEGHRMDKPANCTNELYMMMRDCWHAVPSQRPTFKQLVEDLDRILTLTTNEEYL

BAF/Tel-MER-3.2 = molecular target: T6, BAF/Tel-MER-3.2 (Homo sapiens, UniProt Q12866); experiment: BaF3 proliferation assay; type: cell-based, murine
T6 construct: fused on or other part: P41212 (Transcription factor ETV6)

human monocytes = experiment: Human monocyte survival in culture; type: cell-based; conditions: concentration dependent effect
Protocol: (§1) Freshly isolated human PBMCs were used to purify human monocytes by negative selection using an indirect magnetic labeling system. […] Soluble factors such as cytokines (VEGFa, IL-6 etc.) and chemokines (IL-8, MCP-1, MMP9 etc.) in the culture supernatant were measured using commercial ELISA kits. The in vitro survival of human macrophages was measured using a commercially available CellTiter-Glo® system. Most observed results were repeated in multiple donors (n>5).

[1] = test system: cytokine-polarized human macrophages (M1 or M2); experiment: Survival of fully differentiated, cytokine-polarized human macrophages; type: cell-based
Protocol: as §1

CD163 = CD163 expression in M2c macrophages; type: cell-based, human
Protocol: as §1

CSF-1 receptor = CSF-1 receptor expression on human monocytes; type: cell-based; conditions: day 1 to day 3
Protocol: as §1

MMP-9 = MMP-9 production by human monocytes (ELISA); type: cell-based; conditions: Monocyte
Protocol: as §1

human macrophages = experiment: CSF-1 and IL-34 mediated macrophage survival; type: cell-based; conditions: 0.1 to 10 μM; 4 donors
Protocol: as §1
A dose range (0 to 100 ng/ml) of CSF-1 or IL-34 was tested and macrophage survival positively correlated with increasing dose of CSF-1 or IL-34 with no difference between the 2 factors observed.

VEGFa = VEGFa production by human macrophages; type: cell-based; conditions: stimulation with MCSF or IL-34
Protocol: as §1
Activated human macrophages are a source of VEGFa. Human macrophages produce VEGFa following stimulation with MCSF or IL-34.

## CNC(=O)c1cc(Oc2ccc3nc(NC4CCCCC4O)sc3c2)ccn1 (stereo not shown) [Compound (I)]
Abl
  IC50: > 10 µM
Alk
  IC50: > 10 µM
Blk
  IC50: > 10 µM
CamKII alpha
  IC50: > 10 µM
Cdk7 cyclinH MAT1
  IC50: > 10 µM
Ck1gamma2
  IC50: > 10 µM
cRaf
  IC50: > 10 µM
Hck
  IC50: > 10 µM
Jak2
  IC50: > 25 µM
KDR
  IC50: > 25 µM
Lck
  IC50: > 10 µM
PAK2
  IC50: > 25 µM
PAK4
  IC50: > 10 µM
PIK3Cbeta
  IC50: > 25 µM
Pim1
  IC50: > 25 µM
PKC_alpha
  IC50: > 10 µM
Plk1
  IC50: > 25 µM
p38alpha
  IC50: > 25 µM
RAF1_4_CR
  IC50: > 25 µM
Ron
  IC50: > 10 µM
smMLCK
  IC50: > 10 µM
TRKB
  IC50: > 10 µM
CSF_1_RK (h); read-out: % inhibition @ 0.5 μM, CSF_1_RK (h)
  inhibition at 0.5 µM: 97%
CSF_1_RK (h); read-out: % inhibition @ 5 μM, CSF_1_RK (h)
  inhibition at 5 µM: 99%
CSF_1_RK (h); read-out: % inhibition @ 20 μM, CSF_1_RK (h)
  inhibition at 20 µM: 95%
Syk (h); read-out: % inhibition @ 0.5 μM, Syk (h)
  inhibition at 0.5 µM: 32%
Syk (h); read-out: % inhibition @ 5 μM, Syk (h)
  inhibition at 5 µM: 36%
Syk (h); read-out: % inhibition @ 20 μM, Syk (h)
  inhibition at 20 µM: -15%
BaF-Tpr-MET
  EC50: > 10 µM
BAF/Tel-FGFR3-Q2/sACP
  EC50: > 10 µM
BAF/Tel-FGFR2-Q1/sACP
  EC50: > 10 µM
BAF/Tel-MER-3.2
  EC50: > 10 µM
Human monocytes
  concentration at which monocyte survival was significantly affected: ≥ 0.6 µM
[1]
  survival of fully differentiated, cytokine-polarized human macrophages (M1 or M2): did not affect
CD163
  CD163 expression in M2c macrophages: no Compound (I) dose effect
CSF-1 receptor
  CSF-1 receptor expression on human monocytes: increased
MMP-9
  inhibition at 0.05 µM: 30 to 50%
Human macrophages
  CSF-1 mediated macrophage survival: significantly affects
  IL-34 mediated macrophage survival: significantly affects
VEGFa
  VEGFa levels of human macrophages: significantly decreased
